Measurements reported in ChEMBL document CHEMBL1201862, “PubChem BioAssay data set” (2004).
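Five concentrations, 48 hours, 96-well plates. Here, GI50 denotes the concentration required for 50% inhibition of growth.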 Calls of active or inactive are those of the source. Cut-off read from the data, not from the text of the source: active = GI50 up to about 1.1 µM and inactive = higher.

How the values were obtained:
Test in all cases: inhibition of tumour cell growth, NCI panel, 48 h
A549 = test system: A549
EKVX = test system: EKVX
HOP-62 = test system: HOP-62
HT-29 = test system: HT-29
IGROV-1 = test system: IGROV-1
K562 = test system: K562
MDA-MB-435 = test system: MDA-MB-435
MOLT-4 = test system: MOLT-4
NCI-H226 = test system: NCI-H226
NCI-H23 = test system: NCI-H23
NCI-H460 = test system: NCI-H460
NCI/ADR-RES = test system: NCI/ADR-RES
OVCAR-3 = test system: OVCAR-3
OVCAR-4 = test system: OVCAR-4
PC-3 = test system: PC-3
SF-539 = test system: SF-539
SK-MEL-5 = test system: SK-MEL-5
SNB-19 = test system: SNB-19
TK-10 = test system: TK-10
UO-31 = test system: UO-31

SMILES	GI50 (A549)	GI50 (EKVX)	GI50 (HOP-62)	GI50 (HT-29)	GI50 (IGROV-1)	GI50 (K562)	GI50 (MDA-MB-435)	GI50 (MOLT-4)	GI50 (NCI-H226)	GI50 (NCI-H23)	GI50 (NCI-H460)	GI50 (NCI/ADR-RES)	GI50 (OVCAR-3)	GI50 (OVCAR-4)	GI50 (PC-3)	GI50 (SF-539)	GI50 (SK-MEL-5)	GI50 (SNB-19)	GI50 (TK-10)	GI50 (UO-31)
O=C1OC(C(O)CO)C(O)=C1O (stereo unspecified)	> 100 µM (inactive)	> 100 µM (inactive)	> 100 µM (inactive)	> 100 µM (inactive)	> 100 µM (inactive)	65.8 µM (inactive)	> 100 µM (inactive)	> 100 µM (inactive)	> 100 µM (inactive)	> 100 µM (inactive)	> 100 µM (inactive)	> 100 µM (inactive)	> 100 µM (inactive)	> 100 µM (inactive)	> 100 µM (inactive)	> 100 µM (inactive)	> 100 µM (inactive)	> 100 µM (inactive)	> 100 µM (inactive)	> 100 µM (inactive)
COc1ccc2cc1Oc1ccc(cc1)CC1c3c(cc(OC)c4c3Oc3cc5c(cc3O4)CCNC5C2)CCN1C (stereo unspecified)	2.2 µM (inactive)	1.94 µM (inactive)	2.2 µM (inactive)	–	1.87 µM (inactive)	–	1.8 µM (inactive)	1.46 µM (inactive)	5.52 µM (inactive)	2.06 µM (inactive)	–	1.92 µM (inactive)	2.69 µM (inactive)	2.33 µM (inactive)	1.88 µM (inactive)	1.7 µM (inactive)	2.06 µM (inactive)	2 µM (inactive)	1.86 µM (inactive)	15.6 µM (inactive)
CCc1nc(N)nc(N)c1-c1ccc2nn(-c3ccccc3)[n+]([O-])c2c1	0.378 µM (active)	7.96 µM (inactive)	5.82 µM (inactive)	1.26 µM (inactive)	1.67 µM (inactive)	0.203 µM (active)	1.27 µM (inactive)	2.84 µM (inactive)	14.5 µM (inactive)	1.87 µM (inactive)	0.361 µM (active)	3.13 µM (inactive)	7.62 µM (inactive)	11.9 µM (inactive)	1.23 µM (inactive)	3.7 µM (inactive)	2.61 µM (inactive)	16.3 µM (inactive)	15 µM (inactive)	7.13 µM (inactive)
Cn1c(-c2ccccc2)c2cc3nc4ccccc4nc3cc2c1-c1ccccc1	3.94 µM (inactive)	31 µM (inactive)	10.2 µM (inactive)	17.8 µM (inactive)	17.5 µM (inactive)	17.3 µM (inactive)	5.79 µM (inactive)	21 µM (inactive)	–	7.14 µM (inactive)	4.19 µM (inactive)	23.2 µM (inactive)	20.4 µM (inactive)	30 µM (inactive)	14.7 µM (inactive)	17.4 µM (inactive)	1.67 µM (inactive)	20.2 µM (inactive)	41 µM (inactive)	22.5 µM (inactive)
Cc1[nH]c(=O)nc(S)c1C(=O)Nc1cccc2cc3ccccc3cc12	–	> 100 µM (inactive)	> 100 µM (inactive)	> 100 µM (inactive)	> 100 µM (inactive)	> 100 µM (inactive)	> 100 µM (inactive)	> 100 µM (inactive)	> 100 µM (inactive)	> 100 µM (inactive)	> 100 µM (inactive)	> 100 µM (inactive)	> 100 µM (inactive)	> 100 µM (inactive)	> 100 µM (inactive)	–	> 100 µM (inactive)	> 100 µM (inactive)	> 100 µM (inactive)	> 100 µM (inactive)
O=C(NC(Cc1ccc(Br)cc1)C(=O)O)c1ccc(I)cc1 (stereo unspecified)	> 100 µM (inactive)	> 52 µM (inactive)	> 100 µM (inactive)	> 100 µM (inactive)	> 100 µM (inactive)	> 100 µM (inactive)	–	> 69.5 µM (inactive)	> 100 µM (inactive)	> 100 µM (inactive)	> 100 µM (inactive)	> 100 µM (inactive)	> 69.7 µM (inactive)	75.3 µM (inactive)	–	> 100 µM (inactive)	> 100 µM (inactive)	> 81.3 µM (inactive)	–	> 100 µM (inactive)
COc1ccc(N2C(=O)C3c4[nH]c5cccc(C)c5c4C4CCC(C(C)(C)C)CC4C3C2=O)cc1 (stereo unspecified)	> 10 µM (inactive)	> 10 µM (inactive)	> 10 µM (inactive)	> 10 µM (inactive)	> 10 µM (inactive)	> 10 µM (inactive)	> 10 µM (inactive)	> 10 µM (inactive)	> 10 µM (inactive)	> 10 µM (inactive)	4.68 µM (inactive)	> 10 µM (inactive)	> 10 µM (inactive)	0.796 µM (active)	> 10 µM (inactive)	> 10 µM (inactive)	> 10 µM (inactive)	> 10 µM (inactive)	> 10 µM (inactive)	> 10 µM (inactive)
